Test results from publication PMC4965013, “Open Source Drug Discovery with the Malaria Box Compound Collection for Neglected Diseases and Beyond” (PLoS Pathogens, 2016).

Key:
P. falciparum = assay: EC50 listed in S2 Table Metabolomics (used to set the concentration tested); format: cell-based; conditions: Plasmodium falciparum; EC50 used for Factor_XEC50 in metabolomics; read-out: EC50_nM
[1] = system: P. falciparum 3D7 trophozoites; assay: Metabolomic fingerprint profiling LC-MS; format: cell-based, Plasmodium falciparum; parameters: UDP-D-glucose / ADP-D-glucose: unit not given here; conditions: for Acetyllysine / N-acetyl-L-ornithine / N-carbamoyl-L-aspartate / NADPH / dAMP / dCMP / dTDP / dTMP / dTTP / dihydroorotate / orotate / DLH / DLS/SDL/SID / PD / PEE / PVNF / 3-phosphoglycerate / ADP-D-glucose / ATP / CDP / D-sedoheptulose-1/7-phosphate / FAD / GMP / NAD+ / NADP+ / Octoluse Bisphosphate / Pyroglutamic acid / UDP-D-glucose / UDP-D-glucuronate / UDP-N-acetyl-glucosamine / UDP / UMP / UTP / a-ketoglutarate / citrate/isocitrate / cytidine / dATP / dGMP/AMP / fumarate / glucose-1/6-phosphate / glycerate / guanine / guanosine / hypoxanthine / indole / inosine / nicotinate / ornithine / phosphoenolpyruvate / pyruvate / ribose-phosphate / sarcosine/alanine / sn-glycerol-3-phosphate / succinate/methylmalonic acid / uridine / xanthosine: S2 Table Metabolomics; for Acetyllysine: metabolite Acetyllysine; for N-acetyl-L-ornithine: metabolite N-acetyl-L-ornithine; for N-carbamoyl-L-aspartate: metabolite N-carbamoyl-L-aspartate; for NADPH: metabolite NADPH; for dAMP: metabolite dAMP; for dCMP: metabolite dCMP; for dTDP: metabolite dTDP; for dTMP: metabolite dTMP; for dTTP: metabolite dTTP; for dihydroorotate: metabolite dihydroorotate; for orotate: metabolite orotate; for DLH: peptide DLH; for DLS/SDL/SID: peptide DLS/SDL/SID; for PD: peptide PD; for PEE: peptide PEE; for PVNF: peptide PVNF; for 3-phosphoglycerate: metabolite 3-phosphoglycerate; for ADP-D-glucose: metabolite ADP-D-glucose; for ATP: metabolite ATP; for CDP: metabolite CDP; for CDP / D-sedoheptulose-1/7-phosphate / GMP / Octoluse Bisphosphate / UDP / UMP / UTP / citrate/isocitrate / dGMP/AMP / fumarate / glucose-1/6-phosphate / glycerate / guanine / guanosine / inosine / pyruvate / sarcosine/alanine / succinate/methylmalonic acid / uridine / xanthosine: change in metabolite level after compound treatment; for D-sedoheptulose-1/7-phosphate: metabolite D-sedoheptulose-1/7-phosphate; for FAD: metabolite FAD; for GMP: metabolite GMP; for NAD+: metabolite NAD+; for NADP+: metabolite NADP+; for Octoluse Bisphosphate: metabolite Octoluse Bisphosphate; for Pyroglutamic acid: metabolite Pyroglutamic acid; for UDP-D-glucose: metabolite UDP-D-glucose; for UDP-D-glucuronate: metabolite UDP-D-glucuronate; for UDP-N-acetyl-glucosamine: metabolite UDP-N-acetyl-glucosamine; for UDP: metabolite UDP; for UMP: metabolite UMP; for UTP: metabolite UTP; for a-ketoglutarate: metabolite a-ketoglutarate; for citrate/isocitrate: metabolite citrate/isocitrate; for cytidine: metabolite cytidine; for dATP: metabolite dATP; for dGMP/AMP: metabolite dGMP/AMP; for fumarate: metabolite fumarate; for glucose-1/6-phosphate: metabolite glucose-1/6-phosphate; for glycerate: metabolite glycerate; for guanine: metabolite guanine; for guanosine: metabolite guanosine; for hypoxanthine: metabolite hypoxanthine; for indole: metabolite indole; for inosine: metabolite inosine; for 2_3-Diphosphoglyceric acid / 4-phosphopantothenate / 6-phospho-D-gluconate / FMN / IMP / Pyrophosphate / Sedoheptoluse bisphosphate / cyclic-AMP / glutathione disulfide / lactate / myo-inositol: metabolite level change after treatment; for nicotinate: metabolite nicotinate; for ornithine: metabolite ornithine; for phosphoenolpyruvate: metabolite phosphoenolpyruvate; for pyruvate: metabolite pyruvate; for ribose-phosphate: metabolite ribose-phosphate; for sarcosine/alanine: metabolite sarcosine/alanine; for sn-glycerol-3-phosphate: metabolite sn-glycerol-3-phosphate; for succinate/methylmalonic acid: metabolite succinate/methylmalonic acid; for uridine: metabolite uridine; for xanthosine: metabolite xanthosine

SMILES: CCOC(=O)c1cn(CC)c2cc(N3CCCCC3)c(F)cc2c1=O [MMV665827]
- EC50 (P. falciparum): 0.119 µM
- Acetyllysine [1]: 0.6167
- N-acetyl-L-ornithine [1]: 0.5501
- N-carbamoyl-L-aspartate [1]: 4.792
- NADPH [1]: 0.6598
- dAMP [1]: 0.7737
- dCMP [1]: 1.737
- dTDP [1]: 0.1707
- dTMP [1]: 0.8282
- dTTP [1]: 0.03923
- dihydroorotate [1]: 4.825
- orotate [1]: -0.5812
- DLH [1]: -0.7896
- DLS/SDL/SID [1]: 0.01567
- PD [1]: 0.7077
- PEE [1]: -1.44
- PVNF [1]: -0.1312
- 3-phosphoglycerate [1]: -0.02186
- ADP-D-glucose [1]: 0.2064
- ATP [1]: 0.6896
- CDP [1]: 0.1387
- D-sedoheptulose-1/7-phosphate [1]: 0.4202
- FAD [1]: 0.7349
- GMP [1]: -0.6725
- NAD+ [1]: 0.4401
- NADP+ [1]: 0.5706
- Octoluse Bisphosphate [1]: 0.2411
- Pyroglutamic acid [1]: -0.2796
- UDP-D-glucose [1]: 0.1953
- UDP-D-glucuronate [1]: -0.1324
- UDP-N-acetyl-glucosamine [1]: 0.2567
- UDP [1]: 0.4721
- UMP [1]: -1.447
- UTP [1]: -1.04
- a-ketoglutarate [1]: -0.2461
- citrate/isocitrate [1]: -1.463
- cytidine [1]: 0.4678
- dATP [1]: 0.6493
- dGMP/AMP [1]: 0.07314
- fumarate [1]: -0.2241
- glucose-1/6-phosphate [1]: 1.8807
- glycerate [1]: -0.09674
- guanine [1]: 1.02
- guanosine [1]: 0.7998
- hypoxanthine [1]: -0.3352
- indole [1]: -0.0107
- inosine [1]: 0.5749
- 2_3-Diphosphoglyceric acid [1]: 0.1079
- 4-phosphopantothenate [1]: 0.2143
- 6-phospho-D-gluconate [1]: 0.3355
- FMN [1]: 0.4894
- IMP [1]: 0.7697
- Pyrophosphate [1]: -1.117
- Sedoheptoluse bisphosphate [1]: 0.6312
- cyclic-AMP [1]: 0.6768
- glutathione disulfide [1]: 0.6276
- lactate [1]: 1.255
- myo-inositol [1]: 2.498
- nicotinate [1]: -0.197
- ornithine [1]: 0.8346
- phosphoenolpyruvate [1]: -0.2956
- pyruvate [1]: 0.5345
- ribose-phosphate [1]: 0.3041
- sarcosine/alanine [1]: 0.4367
- sn-glycerol-3-phosphate [1]: 0.2478
- succinate/methylmalonic acid [1]: -0.3191
- uridine [1]: 0.6011
- xanthosine [1]: -0.8841

SMILES: CCOC(=O)c1c(NC(=O)c2ccccc2)sc2c(O)c(CN(CC)CC)ccc12 [MMV665831]
- EC50 (P. falciparum): 0.205 µM
- Acetyllysine [1]: -3.559
- N-acetyl-L-ornithine [1]: -2.775
- N-carbamoyl-L-aspartate [1]: -1.992
- NADPH [1]: 1.923
- dAMP [1]: -1.503
- dCMP [1]: -0.7769
- dTDP [1]: -0.143
- dTMP [1]: 0.09088
- dTTP [1]: -0.5361
- dihydroorotate [1]: -1.759
- orotate [1]: -1.534
- DLH [1]: -5.287
- DLS/SDL/SID [1]: -4.31
- PD [1]: -4.8541
- PEE [1]: -3.834
- PVNF [1]: -4.964
- 3-phosphoglycerate [1]: -0.2896
- ADP-D-glucose [1]: -0.2463
- ATP [1]: 0.0783
- CDP [1]: 0.9119
- D-sedoheptulose-1/7-phosphate [1]: 0.4987
- FAD [1]: 0.1414
- GMP [1]: -0.668
- NAD+ [1]: -0.0766
- NADP+ [1]: 0.2915
- Octoluse Bisphosphate [1]: -0.5945
- Pyroglutamic acid [1]: 0.1607
- UDP-D-glucose [1]: 0.05295
- UDP-D-glucuronate [1]: 0.02399
- UDP-N-acetyl-glucosamine [1]: -0.03093
- UDP [1]: 0.469
- UMP [1]: -0.6472
- UTP [1]: 0.04522
- a-ketoglutarate [1]: -1.141
- citrate/isocitrate [1]: 0.03995
- cytidine [1]: 0.9734
- dATP [1]: -0.7894
- dGMP/AMP [1]: -0.1413
- fumarate [1]: -1.268
- glucose-1/6-phosphate [1]: -0.4706
- glycerate [1]: -0.5026
- guanine [1]: -0.4153
- guanosine [1]: -0.8776
- hypoxanthine [1]: -0.04834
- indole [1]: -0.03305
- inosine [1]: -0.4277
- 2_3-Diphosphoglyceric acid [1]: 0.2082
- 4-phosphopantothenate [1]: -0.594
- 6-phospho-D-gluconate [1]: -0.9918
- FMN [1]: 0.1595
- IMP [1]: -0.2597
- Pyrophosphate [1]: -0.0001746
- Sedoheptoluse bisphosphate [1]: -0.3963
- cyclic-AMP [1]: -0.8626
- glutathione disulfide [1]: -0.3472
- lactate [1]: -0.3473
- myo-inositol [1]: -0.3976
- nicotinate [1]: -0.05954
- ornithine [1]: -0.2486
- phosphoenolpyruvate [1]: -0.1118
- pyruvate [1]: -0.4191
- ribose-phosphate [1]: -0.6703
- sarcosine/alanine [1]: -1.233
- sn-glycerol-3-phosphate [1]: -0.08824
- succinate/methylmalonic acid [1]: -0.8852
- uridine [1]: -0.3477
- xanthosine [1]: -1.069
